Each block holds one compound with its values, some of them ahead of it.
Experiments:
[1] = Pharmacokinetics of PTH (1-34) in albumin crystal sugar truffle shell vs IV, plasma PTH (1-34) by ELISA; format: in vivo, Minipigs (Yorkshire); details: 0.04 mg
Source text: The PTH (1-34) was processed to prepare albumin microparticles containing PTH according to the procedure mentioned under Example 4. The microparticle of albumin crystals containing PTH was then lyophilized after washing with cold isopropanol.
(§1) Pigs in the oral treatment group was either fasted overnight or fed prior to the test sample administration. […] The time of dosage of each animal was noted. […] An antibody, anti-PTH (1-34) was pre-coated onto a 96-well plate. […] The intensity of the yellow color is proportional to the PTH (1-34) amount bound on the plate.

[2] = Pharmacokinetics of PTH (1-34) in albumin crystal capsule (Vitamin E) vs IV, plasma PTH (1-34) by ELISA; format: in vivo, Minipigs (Yorkshire); details: 0.04 mg
Source text: The PTH (1-34) was processed to prepare albumin microparticles containing PTH according to the procedure mentioned under Example 4. The microparticle of albumin crystals containing PTH was then lyophilized after washing with cold isopropanol. […] The capsule was then closed.
as §1

[3] = Pharmacokinetics of Octreotide in albumin crystal sugar truffle shell vs IV, plasma Octreotide by ELISA; format: in vivo, Wistar Rats; details: 0.1 mg
Source text: Rats in the oral treatment group was fasted overnight. […] The time of dosage of each animal was noted. […] Biosystems protocol.

[4] = female, Yorkshire, minipig, plasma, iv
[5] = female, Yorkshire, minipig, plasma, iv, IV, read-out: AUC 0-inf_pred
[6] = female, Yorkshire, minipig, plasma, iv, IV, read-out: AUC 0-t
[7] = female, Yorkshire, minipig, plasma, iv, IV, read-out: AUC t-inf_obs
[8] = female, Yorkshire, minipig, plasma, iv, IV, read-out: AUC t-inf_pred
[9] = female, Yorkshire, minipig, plasma, iv, IV, read-out: MRT 0-inf_obs
[10] = female, Yorkshire, minipig, plasma, iv, IV, read-out: MRT 0-inf_pred
[11] = female, Yorkshire, minipig, plasma, iv, read-out: MRT 0-t
[12] = female, Yorkshire, minipig, plasma, iv, read-out: t½ (converted)

Mean PTH (1-34) levels ([1]; 0 h, IV): 1429.01 ± 104.61 pg/mL
Mean PTH (1-34) levels ([1]; 0.08 h, IV): 2822.98 ± 196.91 pg/mL
Mean PTH (1-34) levels ([1]; 0.16 h, IV): 2898.29 ± 307.43 pg/mL
Mean PTH (1-34) levels ([1]; 0.5 h, IV): 1619.38 ± 229.76 pg/mL
Mean PTH (1-34) levels ([1]; 1 h, IV): 421.23 ± 126.34 pg/mL
Mean PTH (1-34) levels ([1]; 2 h, IV): 164.93 ± 39.5 pg/mL
Mean PTH (1-34) levels ([1]; 4 h, IV): 90.76 ± 7.55 pg/mL
Mean PTH (1-34) levels ([1]; 12 h, IV): 15.43 ± 1.57 pg/mL
AUMC 0-inf_obs ([1]; IV): 4903.835 pg/ml * h^2
AUMC 0-inf_pred ([1]; IV): 4888.052 pg/ml * h^2
AUMC 0-t ([1]; IV): 3822.072 pg/ml * h^2
AUMC 0-t/0-inf_obs ([1]; IV): 0.779
AUMC 0-t/0-inf_pred ([1]; IV): 0.782
AUMC t-inf_obs ([1]; IV): 1081.763 pg/ml * h^2
AUMC t-inf_pred ([1]; IV): 1065.980 pg/ml * h^2
Cl_obs ([1]; IV): 0.000 (mg)/(pg/ml)/h
Cl_pred ([1]; IV): 0.000 (mg)/(pg/ml)/h
Clast_pred ([1]; IV): 0.015205 ng/mL
Lambda_z ([1]; IV): 0.233 h⁻¹
Tlast ([1]; IV): 12.000 h
C0 [1, 4]: 1.43 ng/mL
Cmax [1, 4]: 2.9 ng/mL
Tmax [1, 4]: 9.6 min
AUC(0-inf) ([1]; female, Yorkshire, minipig, plasma, iv, IV, read-out: AUC 0-inf_obs): 2.72 ng·h/mL
AUC(0-inf) [1, 5]: 2.72 ng·h/mL
AUC(0-t) [1, 6]: 2.65 ng·h/mL
AUC(0-t) [1, 7]: 0.0664 ng·h/mL
AUC(0-t) [1, 8]: 0.0654 ng·h/mL
MRT inf [1, 9]: 1.8 h
MRT inf [1, 10]: 1.8 h
level at 12 h ([1]; female, Yorkshire, minipig, plasma, iv, read-out: Clast_obs): 0.0154 ng/mL
MRT last [1, 11]: 1.44 h
half-life [1, 12]: 2.98 h
AUMC 0-inf_obs ([2]; IV): 4903.835 pg/ml * h^2
AUMC 0-inf_pred ([2]; IV): 4888.052 pg/ml * h^2
AUMC 0-t/0-inf_obs ([2]; IV): 0.779
AUMC 0-t/0-inf_pred ([2]; IV): 0.782
AUMC t-inf_pred ([2]; IV): 1065.980 pg/ml * h^2
AUMC_0-t ([2]; IV): 3822.072 pg/ml * h^2
AUMC_t-inf obs ([2]; IV): 1081.763 pg/ml * h^2
Cl_obs ([2]; IV): 0.000 (mg)/(pg/ml)/h
Cl_pred ([2]; IV): 0.000 (mg)/(pg/ml)/h
Clast_obs ([2]; IV): 0.01543 ng/mL
Clast_pred ([2]; IV): 0.015205 ng/mL
Lambda_z ([2]; IV): 0.233 h⁻¹
Tlast ([2]; IV): 12.000 h
C0 [2, 4]: 1.43 ng/mL
Cmax [2, 4]: 2.9 ng/mL
Tmax [2, 4]: 9.6 min
AUC(0-inf) ([2]; female, Yorkshire, minipig, plasma, iv, IV, read-out: AUC 0-inf obs): 2.72 ng·h/mL
AUC(0-inf) [2, 5]: 2.72 ng·h/mL
AUC(0-t) [2, 6]: 2.65 ng·h/mL
AUC(0-t) [2, 7]: 0.0664 ng·h/mL
AUC(0-t) [2, 8]: 0.0654 ng·h/mL
MRT inf [2, 9]: 1.8 h
MRT inf [2, 10]: 1.8 h
MRT last [2, 11]: 1.44 h
half-life [2, 12]: 2.98 h
level at 0 h ([2]; female, Yorkshire, minipig, plasma, 0 h, IV, read-out: Mean PTH (1-34) levels): 1.43 ± 0.105 ng/mL
level at 0.08 h ([2]; female, Yorkshire, minipig, plasma, 0.08 h, IV, read-out: Mean PTH (1-34) levels): 2.82 ± 0.197 ng/mL
level at 0.16 h ([2]; female, Yorkshire, minipig, plasma, 0.16 h, IV, read-out: Mean PTH (1-34) levels): 2.9 ± 0.307 ng/mL
level at 0.5 h ([2]; female, Yorkshire, minipig, plasma, 0.5 h, IV, read-out: Mean PTH (1-34) levels): 1.62 ± 0.23 ng/mL
level at 1 h ([2]; female, Yorkshire, minipig, plasma, 1 h, IV, read-out: Mean PTH (1-34) levels): 0.421 ± 0.126 ng/mL
level at 2 h ([2]; female, Yorkshire, minipig, plasma, 2 h, IV, read-out: Mean PTH (1-34) levels): 0.165 ± 0.0395 ng/mL
level at 4 h ([2]; female, Yorkshire, minipig, plasma, 4 h, IV, read-out: Mean PTH (1-34) levels): 0.0908 ± 0.00755 ng/mL
level at 12 h ([2]; female, Yorkshire, minipig, plasma, 12 h, IV, read-out: Mean PTH (1-34) levels): 0.0154 ± 0.00157 ng/mL
SMILES: CC[C@H](C)[C@H](NC(=O)[C@H](CCC(=O)O)NC(=O)[C@H](CO)NC(=O)[C@@H](NC(=O)[C@@H](N)CO)C(C)C)C(=O)N[C@@H](CCC(N)=O)C(=O)N[C@@H](CC(C)C)C(=O)N[C@@H](CCSC)C(=O)N[C@@H](Cc1cnc[nH]1)C(=O)N[C@@H](CC(N)=O)C(=O)N[C@@H](CC(C)C)C(=O)NCC(=O)N[C@@H](CCCCN)C(=O)N[C@@H](Cc1cnc[nH]1)C(=O)N[C@@H](CC(C)C)C(=O)N[C@@H](CC(N)=O)C(=O)N[C@@H](CO)C(=O)N[C@@H](CCSC)C(=O)N[C@@H](CCC(=O)O)C(=O)N[C@@H](CCCN=C(N)N)C(=O)N[C@H](C(=O)N[C@@H](CCC(=O)O)C(=O)N[C@@H](Cc1c[nH]c2ccccc12)C(=O)N[C@@H](CC(C)C)C(=O)N[C@@H](CCCN=C(N)N)C(=O)N[C@@H](CCCCN)C(=O)N[C@@H](CCCCN)C(=O)N[C@@H](CC(C)C)C(=O)N[C@@H](CCC(N)=O)C(=O)N[C@@H](CC(=O)O)C(=O)N[C@H](C(=O)N[C@@H](Cc1cnc[nH]1)C(=O)N[C@@H](CC(N)=O)C(=O)N[C@@H](Cc1ccccc1)C(=O)O)C(C)C)C(C)C [PTH (1-34)]

SMILES: C[C@@H](O)[C@@H]1NC(=O)[C@H](CCCCN)NC(=O)[C@@H](Cc2c[nH]c3ccccc23)NC(=O)[C@H](Cc2ccccc2)NC(=O)[C@@H](NC(=O)[C@H](N)Cc2ccccc2)CSSC[C@@H](C(=O)N[C@H](CO)[C@@H](C)O)NC1=O (relative stereo) [Octreotide, L-cysteinamide, D-phenylalanyl-L-cysteinyl-L-phenylalanyl-D-tryptophyl-L-lysyl-L-threonyl-N-[2-hydroxy-1-(hydroxy-methyl)propyl]-, cyclic (2→7)-disulfide; [R-(R*,R*)]]
Cl_pred ([3]; IV): 6.036E−06 (mg)/(ng/ml)/h
Vss_obs ([3]; IV): 0.0001111 (mg)/(ng/ml)
Vss_pred ([3]; IV): 0.0001107 (mg)/(ng/ml)
Vz_obs ([3]; IV): 0.0001106 (mg)/(ng/ml)
Vz_pred ([3]; IV): 0.0001118 (mg)/(ng/ml)
C0 ([3]; male, Wistar, rat, in vivo, iv): 3830 ng/mL
Cmax ([3]; male, Wistar, rat, in vivo, iv): 5390 ng/mL
Tmax ([3]; male, Wistar, rat, in vivo, iv): 2 h
AUC(0-inf) ([3]; male, Wistar, rat, in vivo, iv, IV, read-out: AUC 0-inf_obs): 105000 ng·h/mL
AUC(0-inf) ([3]; male, Wistar, rat, in vivo, iv, IV, read-out: AUC 0-inf_pred): 104000 ng·h/mL
AUC(0-t) ([3]; male, Wistar, rat, in vivo, iv, IV, read-out: AUC 0-t): 74200 ng·h/mL
AUC(0-t) ([3]; male, Wistar, rat, in vivo, iv, IV, read-out: AUC t-inf_obs): 30500 ng·h/mL
AUC(0-t) ([3]; male, Wistar, rat, in vivo, iv, IV, read-out: AUC t-inf_pred): 29400 ng·h/mL
MRT inf ([3]; male, Wistar, rat, in vivo, iv, IV, read-out: MRT 0-inf_obs): 18.6 h
MRT inf ([3]; male, Wistar, rat, in vivo, iv, IV, read-out: MRT 0-inf_pred): 18.3 h
MRT last ([3]; male, Wistar, rat, in vivo, iv, read-out: MRT 0-t): 8.78 h
half-life ([3]; male, Wistar, rat, in vivo, iv, read-out: t½ (converted)): 12.8 h
level at 0 h ([3]; male, Wistar, rat, in vivo, 0 h, IV): 3830 ± 1290 ng/mL
level at 0.25 h ([3]; male, Wistar, rat, in vivo, 0.25 h, IV): 4390 ± 559 ng/mL
level at 0.5 h ([3]; male, Wistar, rat, in vivo, 0.5 h, IV): 3170 ± 924 ng/mL
level at 1 h ([3]; male, Wistar, rat, in vivo, 1 h, IV): 4130 ± 1170 ng/mL
level at 2 h ([3]; male, Wistar, rat, in vivo, 2 h, IV): 5390 ± 356 ng/mL
level at 4 h ([3]; male, Wistar, rat, in vivo, 4 h, IV): 5150 ± 704 ng/mL
level at 8 h ([3]; male, Wistar, rat, in vivo, 8 h, IV): 3160 ± 1390 ng/mL

Reference: US12533321B2, “Polypeptide formulations for oral delivery” (Bhami's Research Laboratory, Pvt. Ltd., priority 2022, dated 2026)
